Measured values: US9732131B2, “Identification and use of novopeptides for the treatment of cancer” (Calviri Inc., priority 2006, dated 2017)

Assays:
[1] = test system: serum antibodies of cancer patients; test: ELISA of cancer patient serum for reactivity with novopeptide; type: binding, human; conditions: serum from 23 cancer patients, standard ELISA (FIG. 8)
Text: Disclosed herein are embodiments of methods for performing novopeptide immunological screens. For example, disclosed herein are embodiments of methods for immunologically screening for the existence of a B cell response to a particular novopeptide comprising assaying for the presence of antibodies reactive to that novopeptide in serum samples from individuals having a type of cancerous cells predicted to express the novopeptide, and for the absence, or presence below a prespecified titer, of such reactive antibodies in serum obtained from one or more individuals not having such cancer. The presence in sera of antibodies reactive to a given novopeptide may be detected and quantified by an ELISA assay in which the novopeptide is adsorbed onto a solid surface, serum is applied, and antibodies remaining bound to the novopeptides after washing are detected. […] However, in at least some individuals, a strong immune response develops late in the tumor progression process. Therefore, serum antibody reactivity to a candidate novopeptide, even if detected in the serum of only one or a few individuals having the cancer type in question, is strong evidence that the novopeptide is expressed in that cancer type.
Novopeptides in the FS database in association with particular tumor cell types were identified. […]

[2] = test system: SW480 tumor cells; test: CTL assay (Cr release) with CTLs activated against novopeptide; type: cell-based, human; conditions: MHC-matched SW480 cells pulsed with peptide vs unpulsed (FIG. 9)
Text: These CTL's may then be tested for reactivity against each of (1) cancerous cells, and (2) non-cancerous cells, each having an MHC or HLA type matching that of the MHC or HLA for which the CTL's are specific.
This is a standard Cr release assay that anyone skilled in the art would be able to do.

[3] = test system: breast tumor driven by mutant rat Her2 gene; test: Prophylactic immunization in BALB-neuT transgenic breast cancer model; type: in vivo; conditions: BALB-neuT mice, genetic prime/boost + KLH-peptide boost; vs non-treated and negative control (FIGS. 13a, 13b)
Text: From the candidate FS peptide sequences disclosed in Table 8 two candidates were selected for in vivo confirmation. The candidates chosen will be referred to herein as FS RBM (SEQ ID NO:232) and FS THAP2 (SEQ ID NO:238), these novopeptides having upstream in-frame portions that align with the mouse Rbm14 and Thap2 genes, respectively. […] The BALB-neuT mouse model is a transgenic mouse breast cancer model, in which all ten mammary glands of a female mouse will develop breast tumor around 20 weeks of age, driven by overexpression of a mutant rat Her2 gene.
FS RBM and FS THAP2 peptides were tested in vivo as candidate peptide components of a prophylactic anti-cancer vaccine. BALB-neuT mice were immunized at 4 to 6 weeks old (primary genetic immunization); 8 to 10 weeks old (boost genetic immunization) and 12 to 14 weeks old (boost peptide immunization). All genetic immunization had the same genetic adjuvant for each bullet for gene gun immunization: 250 ng mixed LTA-LTB/pCMVi and 2.5 μgCpG 2216. All mice received two shots at each ear by gene gun for each genetic immunization. At primary immunization, the vaccine group got two shots of bullets containing 100 ng (high dosage) or 20 ng (low dosage) mixed FS antigen plasmids per bullet; while negative group got two shots of 100 ng mixed empty plasmids for each shot. […]

[4] = test system: B16 F10 melanoma tumor cells; test: Prophylactic genetic immunization (gene gun LEE + pGM-CSF), B16 F10 melanoma challenge; type: in vivo, C57BL6 mice
[5] = test system: 4T1 breast tumor cells; test: Prophylactic genetic immunization, 4T1 breast tumor challenge; type: in vivo; conditions: Balb/c mice, 3.2 ng FS 1-78 LEE + 1 μg pGM-CSF, boost, challenge 1×10^4 4T1 cells; vs pGM-CSF alone and FS 6-21 controls (FIG. 5)
Text: Immunization with a single FS-novopeptide identified based on one tumor type may be immunoprotective against a different tumor type in a different mouse strain. Disclosed herein is a procedure for such immunization. Immunization with novopeptides common to multiple types of tumors can result in cross-protection, obviating the requirement that a patient must develop a tumor before a personalized vaccine can be formulated, prepared and administered. Balb/c mice were immunized in the same manner as the C57BL6 mice in Example 2 above, with 3.2 ng of FS 1-78 LEE+1 μg of pGM-CSF, and boosted with the same gene vaccine after 2 weeks. One week after the boost, mice were challenged with 1×10^4 4 T1 breast tumor cells. Seventeen days after 4T1 challenge, tumors started to grow.

[6] = test system: B16 melanoma line; test: Therapeutic gene vaccine encoding SMC1A FS, B16 melanoma mouse tumor model; type: in vivo, mice; conditions: B16 inoculated, gene vaccine one day later
Protocol: The FS was tested for therapeutic value as a vaccine in the mouse tumor model. The B16 melanoma line was inoculated into mice. One day later the mice were vaccinated with a gene vaccine encoding the FS.

[7] = test system: 4T1 tumor cells; test: Prophylactic genetic immunization, BALB/C-4T1 mouse transplant breast tumor model; type: in vivo; conditions: three peptide components given together by genetic immunization at 7 and 13 weeks; challenge 5,000 4T1 cells; vs empty vector (FIG. 15)
Protocol: Primary genetic immunization was administered with the three peptide components (10 mice) or with empty vector (negative controls, 4 mice) at 7 weeks old and 13 weeks old. Three weeks after the last immunization, all mice were challenged with 5,000 4T1 tumor cells. Tumor size was measured each day after palpable tumors appeared. […] Error bars show standard error.

## AVLLMCQLYQpwmckeyyrll* (AVLLMCQLYQPWMCKEYYRLL; Synthetic or recombinant sequence) [FS 6-21, frameshift novopeptide, 95 bp deletion]
[1]
  antibody reactivity in sera of cancer patients: one cancer patient in 23
[2]
  CTL killing of tumor cells: able to kill MHC-matched tumor cells pulsed with FS 6-21 peptide

## FS RBM: mouse novopeptide whose upstream in-frame portion aligns with the mouse Rbm14 gene (GRVIECDVVKGSCQDGEAVHWKSAPGGHRAGDPLTLRAVREGAGM; Synthetic or recombinant sequence)
[3]
  inhibition of first tumor onset and tumor progression: significant prophylactic protection

## FS THAP2: mouse novopeptide whose upstream in-frame portion aligns with the mouse Thap2 gene (FDFCTHIKSLVTFGLFLRGAGCSPSSFLL; Synthetic or recombinant sequence)
[3]
  inhibition of first tumor onset and tumor progression: significant prophylactic protection

## IPRMQPQASAnhcqllkvmva* (LLMCQCQLYQPWMCKEYYRLL; Synthetic or recombinant peptide) [FS 1-78, frameshift novopeptide from B16-F10, 396 bp deletion in a zinc finger protein gene]
[4]; C57BL6 mice, gene gun FS 1-78 LEE + 1 μg pGM-CSF, boost 2 weeks later, challenge 1×10^5 B16 F10 cells, vs empty LEE and no immunization (FIG. 4)
  tumor growth: tumor growth was markedly delayed
[4]; highest dose (3.2 ng) of FS 1-78 LEE (FIG. 4)
  tumor volume: tumor volume decreased after the already delayed rise
[5]
  4T1 tumor growth: significantly delayed and reduced 4T1 tumor growth

## NGSGCSGVYCHEEPQGEDSSV [FS SMC-1A, novopeptide from a frameshift of the SMC1A gene]
[6]; relative to control (FIG. 12a)
  therapeutic effect on tumor size progression: no therapeutic effect on tumor size progression
[6]; relative to control (FIG. 12b)
  survival time: did not show significant improvement in survival time

## SEQ ID NO: 310: first peptide of Table 9, frameshift predicted from mouse microsatellite locus (TLCMEVMLRWNTRELGYLYLQLCFLNTHFLHTSQEEKLLTLGRFLTWTSRCGSFVIRPL; Synthetic or recombinant sequence)
[7]
  prophylactic inhibition of tumor progression (tumor size): effective in prophylactically inhibiting tumor progression

## SEQ ID NO: 311: second peptide of Table 9, frameshift predicted from mouse microsatellite locus (ICMSPPLLWATLQAPETTSAACKASYRPEGLYL; Synthetic or recombinant sequence)
[7]
  prophylactic inhibition of tumor progression (tumor size): effective in prophylactically inhibiting tumor progression

## SEQ ID NO: 312: third peptide of Table 9, frameshift predicted from mouse microsatellite locus (YFSCDKRCIKHYAGNKSLLTFSGY; Synthetic or recombinant sequence)
[7]
  prophylactic inhibition of tumor progression (tumor size): effective in prophylactically inhibiting tumor progression
